# In US10745693B2, “Methods of designing programmable inducible promoters” (WISCONSIN ALUMNI RESEARCH FOUNDATION, priority 2017, dated 2020):
# Tested on: PmeR
# Test: Induction assay of PmeR-enriched promoter library driving GFP in E. coli DH10B (flow cytometer)
# Format: cell-based, Pseudomonas syringae
# Conditions: 300 uM naringenin, over-night growth, E. coli DH10B population repressed by PmeR
# Description: In this example, the allosteric transcription factor was PmeR (repressor) and the inducer molecule was naringenin.
# The post in vitro enrichment of polynucleotides (with PmeR protein) was cloned into a vector to drive the expression of a green fluorescent protein using the Golden Gate assembly method. Following the transformation and over-night growth in E. coli DH10B, the fluorescent intensity distribution was profiled using a flow cytometer with 488 nm laser and 510 (25) nm filter. The delivery of the transcription repressor was through a second vector containing constitutively expressing PmeR protein. The fluorescent intensity distribution shift was captured with a flow cytometer after over-night growth. A decrease of overall fluorescent intensity was observed. The induction assay was conducted with the addition of 300 uM naringenin to the previous E. coli population with decreased fluorescence.
smiles,measurement,value
O=C1C[C@@H](c2ccc(O)cc2)Oc2cc(O)cc(O)c21 [naringenin],Change of fluorescent intensity distribution on induction,overall increase in fluorescent intensity
